# System: mouse genes
# Assay: Whole genome expression in blood of mice after 2AA (Affymetrix GeneChip)
# Assay type: in vivo
# Protocol: To identify how 2AA pre-exposure promotes host defense to better protect against P. aeruginosa infection, we carried out whole genome gene expression studies of mice for several experimental conditions using the mouse full-thickness skin thermal injury infection model, including naïve; BI alone; 2AA treatment alone; 2AA pretreatment plus BI. The mice were injected IP, as we were not yet aware of the improved benefit obtained with IV delivery. Whole blood was collected after 0, 6, 24, 96 and 192 hr post 2AA injection. Also, pretreated BI mice were exposed to 2AA at 1 and 4 days pre-BI, with blood samples collected 24 hr post-BI. The transcriptome profiles were then determined and compared, and genes with statistically significant differences in their expression levels between the samples were further analyzed by pair-wise comparison (see experimental design, section 2.2).
# In experiments to determine if T-aminoacetophenone acts as an immunomodulator, eight 6-week old CD-1 male mice were treated intraperitonialy with 500 μl of a 20 mM solution of T-aminoacetophenone in 0.9% NaCl (aq). A control group of mice was administered only 0.9% NaCl. Blood was withdrawn from the mice at time points of 6 hours, 24 hours, 96 hours, and 192 hours, and RNA was extracted from each blood sample.
# Mouse GeneChip™ arrays, manufactured by Affymetrix (Santa Clara, Calif.), were used to compare the profile of gene expression in the blood samples of mice. The biotin-labeled cRNA used to hybridize to the GeneChips was prepared from the RNA extracted from the blood samples according to the Affymetrix GeneChip Expression Analysis Technical Manual (Research Genetics, Huntsville, Ala.).
# The expression profiles from treated and untreated mice were compared and an additional constraint of a minimum expression ratio of 1 was applied to control false positives to 5%. The gene list was clustered and the genes showing upregulation at any of the time points considered were selected. […] Most of the genes listed in the table function in immune response or host-pathogen interaction. The table includes several cytokines and their receptors, genes involved in immune cell proliferation, and calcium-binding proteins that have a role in downstream signaling.
# [1] = 2AA pre-BI, blood 24 hr post-BI (FIG. 38)
compound,measurement,setting,value
"CC(=O)c1ccccc1N [2AA, 2′-aminoacetophenone]",down-regulated genes in 2AA-treated BI samples,[1],23 genes
same,up-regulated genes in 2AA-treated BI samples,[1],do not identify any up-regulated
same,"Fold Change AF220015 Rpt-1; regulatory protein, T lymphocyte 1","6 h after IP 2AA, blood",2.3 fold
same,"Fold Change AF237910 Membrane-spanning 4-domains, subfamily A","6 h after IP 2AA, blood",2.8 fold
same,"Fold Change AI323359 Csfmr, colony stimulating factor IR, regulator of myeloid cell proliferation","6 h after IP 2AA, blood",2.3 fold
same,"Fold Change AI462015 Nuclear factor of kappa light chain gene enhancer in B-cells inhibitor, alpha","6 h after IP 2AA, blood",2.3 fold
same,Fold Change AI648846 Solute carrier family 6,"6 h after IP 2AA, blood",10.1 fold
same,Fold Change AV026617 FBJ osteosarcoma oncogene,"6 h after IP 2AA, blood",15.0 fold
same,Fold Change AV229143 Interferon activated gene (202A),"6 h after IP 2AA, blood",21.2 fold
same,Fold Change AV318494 Myeloid cell leukemia sequence 1,"6 h after IP 2AA, blood",1.8 fold
same,Fold Change BB193024 Interferon-induced transmembrane protein-2,"6 h after IP 2AA, blood",5.0 fold
same,Fold Change BB241535 Suppressor of cytokine signaling 3,"6 h after IP 2AA, blood",4.9 fold
same,"Fold Change BB769628 Colony stimulating factor 2 receptor, beta 1","6 h after IP 2AA, blood",14.9 fold
same,Fold Change BB784999 Triggering receptor expressed on myeloid cells 1,"6 h after IP 2AA, blood",11.6 fold
same,Fold Change BB831725 Suppressor of cytokine signaling 3,"6 h after IP 2AA, blood",20.8 fold
same,Fold Change BC003839 Myeloid cell leukemia sequence 1 (Mcl1),"6 h after IP 2AA, blood",1.5 fold
same,Fold Change BC010291 Interferon-inducible protein (Cd225),"6 h after IP 2AA, blood",1.3 fold
same,Fold Change BC011092 Chemokine (C-C) receptor 1,"6 h after IP 2AA, blood",1.2 fold
same,Fold Change BC011437 IL-1β,"6 h after IP 2AA, blood",3.5 fold
same,Fold Change BC012653 Chemokine (C-X3-C) receptor 1,"6 h after IP 2AA, blood",30.6 fold
same,"Fold Change BC021916 EMAPI, cytokine activity","6 h after IP 2AA, blood",1.7 fold
same,Fold Change BC022943 Lymphocyte cytosolic protein 1,"6 h after IP 2AA, blood",2.0 fold
same,Fold Change BE285634 Interleukin-1 receptor accessory protein,"6 h after IP 2AA, blood",1.0 fold
same,"Fold Change NM_008039 Receptor activity [formyl peptide receptor, related sequence 2] (Fpr-rs2)","6 h after IP 2AA, blood",13.6 fold
same,Fold Change NM_008677 p40phox; intracellular signaling cascade neutrophil cytosolic factor 4 (Ncf4),"6 h after IP 2AA, blood",1.1 fold
same,"Fold Change NM_008879 Pls2, L-fimbrin, calcium ion binding lymphocyte cytosolic proteing 1 (Lep 1)","6 h after IP 2AA, blood",20.4 fold
same,Fold Change NM_009883 Nuclear factor induced by IL-6 (NF-IL6),"6 h after IP 2AA, blood",1.0 fold
same,Fold Change NM_011087 Paired-Ig-like receptor A1 (Piral),"6 h after IP 2AA, blood",1.9 fold
same,Fold Change NM_011313 Cacy; calcium binding protein A6 (calcyclin)cyclin-dependent protein kinase,"6 h after IP 2AA, blood",5.7 fold
same,Fold Change NM_011315 Saa-3 lipid transported activity acute phase response,"6 h after IP 2AA, blood",4.7 fold
same,"Fold Change NM_011355 PU.1, transcription factor complex cell growth and/or maintenance","6 h after IP 2AA, blood",17.0 fold
same,Fold Change NM_011940 Interferon-activatable protein (Ifi202),"6 h after IP 2AA, blood",29.8 fold
same,"Fold Change NM_011999 DCIR; C-type (calcium dependent, carbohydrate recognition domain) lectin","6 h after IP 2AA, blood",22.8 fold
same,"Fold Change NM_030691 Integral to membrane immunoglobulin superfamily, member 6 (Igsf6)","6 h after IP 2AA, blood",14.9 fold
same,Fold Change NM_030694 Interferon-induced transmembrane protein-3,"6 h after IP 2AA, blood",4.7 fold
same,Fold Change U05264 Glycoprotein 49B (Gp49b),"6 h after IP 2AA, blood",4.7 fold
same,Fold Change U72644 Leukocyte specific transcript 1,"6 h after IP 2AA, blood",1.6 fold
same,Fold Change X14607 Lipocalin 2,"6 h after IP 2AA, blood",13.9 fold
same,"additional genes upregulated (higher cutoff, Table 4)",6 hours after 2′-aminoacetophenone,10 genes
same,"Fold Change AF220015 Rpt-1; regulatory protein, T lymphocyte 1","24 h after IP 2AA, blood",0.6 fold
same,"Fold Change AF237910 Membrane-spanning 4-domains, subfamily A","24 h after IP 2AA, blood",0.5 fold
same,"Fold Change AI323359 Csfmr, colony stimulating factor IR, regulator of myeloid cell proliferation","24 h after IP 2AA, blood",0.7 fold
same,"Fold Change AI462015 Nuclear factor of kappa light chain gene enhancer in B-cells inhibitor, alpha","24 h after IP 2AA, blood",0.4 fold
same,Fold Change AI648846 Solute carrier family 6,"24 h after IP 2AA, blood",8.0 fold
same,Fold Change AV026617 FBJ osteosarcoma oncogene,"24 h after IP 2AA, blood",23.8 fold
same,Fold Change AV229143 Interferon activated gene (202A),"24 h after IP 2AA, blood",10.9 fold
same,Fold Change AV318494 Myeloid cell leukemia sequence 1,"24 h after IP 2AA, blood",1.1 fold
same,Fold Change BB193024 Interferon-induced transmembrane protein-2,"24 h after IP 2AA, blood",1.0 fold
same,Fold Change BB241535 Suppressor of cytokine signaling 3,"24 h after IP 2AA, blood",1.1 fold
same,"Fold Change BB769628 Colony stimulating factor 2 receptor, beta 1","24 h after IP 2AA, blood",6.9 fold
same,Fold Change BB784999 Triggering receptor expressed on myeloid cells 1,"24 h after IP 2AA, blood",5.9 fold
same,Fold Change BB831725 Suppressor of cytokine signaling 3,"24 h after IP 2AA, blood",6.5 fold
same,Fold Change BC003839 Myeloid cell leukemia sequence 1 (Mcl1),"24 h after IP 2AA, blood",0.0 fold
same,Fold Change BC010291 Interferon-inducible protein (Cd225),"24 h after IP 2AA, blood",0.0 fold
same,Fold Change BC011092 Chemokine (C-C) receptor 1,"24 h after IP 2AA, blood",−0.9 fold
same,Fold Change BC011437 IL-1β,"24 h after IP 2AA, blood",0.6 fold
same,Fold Change BC012653 Chemokine (C-X3-C) receptor 1,"24 h after IP 2AA, blood",11.6 fold
same,"Fold Change BC021916 EMAPI, cytokine activity","24 h after IP 2AA, blood",0.3 fold
same,Fold Change BC022943 Lymphocyte cytosolic protein 1,"24 h after IP 2AA, blood",0.2 fold
same,Fold Change BE285634 Interleukin-1 receptor accessory protein,"24 h after IP 2AA, blood",0.2 fold
same,"Fold Change NM_008039 Receptor activity [formyl peptide receptor, related sequence 2] (Fpr-rs2)","24 h after IP 2AA, blood",0.6 fold
same,Fold Change NM_008677 p40phox; intracellular signaling cascade neutrophil cytosolic factor 4 (Ncf4),"24 h after IP 2AA, blood",0.2 fold
same,"Fold Change NM_008879 Pls2, L-fimbrin, calcium ion binding lymphocyte cytosolic proteing 1 (Lep 1)","24 h after IP 2AA, blood",8.4 fold
same,Fold Change NM_009883 Nuclear factor induced by IL-6 (NF-IL6),"24 h after IP 2AA, blood",0.3 fold
same,Fold Change NM_011087 Paired-Ig-like receptor A1 (Piral),"24 h after IP 2AA, blood",0.9 fold
same,Fold Change NM_011313 Cacy; calcium binding protein A6 (calcyclin)cyclin-dependent protein kinase,"24 h after IP 2AA, blood",2.3 fold
same,Fold Change NM_011315 Saa-3 lipid transported activity acute phase response,"24 h after IP 2AA, blood",5.6 fold
same,"Fold Change NM_011355 PU.1, transcription factor complex cell growth and/or maintenance","24 h after IP 2AA, blood",0.0 fold
same,Fold Change NM_011940 Interferon-activatable protein (Ifi202),"24 h after IP 2AA, blood",9.4 fold
same,"Fold Change NM_011999 DCIR; C-type (calcium dependent, carbohydrate recognition domain) lectin","24 h after IP 2AA, blood",8.0 fold
same,"Fold Change NM_030691 Integral to membrane immunoglobulin superfamily, member 6 (Igsf6)","24 h after IP 2AA, blood",3.5 fold
same,Fold Change NM_030694 Interferon-induced transmembrane protein-3,"24 h after IP 2AA, blood",1.1 fold
same,Fold Change U05264 Glycoprotein 49B (Gp49b),"24 h after IP 2AA, blood",1.0 fold
same,Fold Change U72644 Leukocyte specific transcript 1,"24 h after IP 2AA, blood",0.9 fold
